# Experimental data reported in BindingDB's records for doi:10.1021/jm00128a043 (Wellcome Research Laboratories, 1989).
# Test: Inhibition of Staphylococcus aureus DHFR
row,Compound,Ki
1,CCOc1cc(Cc2cnc(N)nc2N)cc(OC)c1OC,2.5 nM
2,CCCOc1cc(Cc2cnc(N)nc2N)cc(OC)c1OC,1.4 nM
3,C/C=C/c1cc(Cc2cnc(N)nc2N)cc(OC)c1OC,1.4 nM
4,C=CCc1cc(Cc2cnc(N)nc2N)cc(OC)c1OC,2.8 nM

# Test: Antibacterial activity against Staphylococcus aureus
row,Compound,Ki
1,C=CCOc1cc(Cc2cnc(N)nc2N)cc(OC)c1OC,3 nM
2,CCCc1cc(Cc2cnc(N)nc2N)cc(CCC)c1OC,3.2 nM
